Structures are written as SMILES.

In series [1] the test system is U138MG. The series can be described thus: Inhibition of PI3K in human U138MG cells assessed as decrease in phosphorylated AKT level by western blot analysis. The series is classed as cell-based. In general terms: Immunoblotting shows a protein as a band on a membrane.
The test system of series [2] is Plasma. The series can be described thus: Plasma concentration in human at 2 g, po. The series is classed as ADME.
A short description of series [3]: Drug uptake in human serum at 4 g/day, po administered for 3 months. The series is classed as ADME, organism-based. Conditions: read-out: Drug uptake.
The nature of series [4]: Drug uptake in human serum at 6 g/day, po administered for 3 months. The series is classed as ADME, organism-based. Conditions: read-out: Drug uptake.
The nature of series [5]: Drug uptake in human serum at 8 g/day, po administered for 3 months. The series is classed as ADME, organism-based. Conditions: read-out: Drug uptake.
A short description of series [6]: Cmax in human at 10 g, po administered as single dose. The series is classed as ADME, organism-based. Also on record: dose 10 g, route oral. Conditions: in vivo.
Series [7] in a line: Cmax in human at 12 g, po administered as single dose. Format: ADME, organism-based. On the set-up: dose 12 g, route oral. Conditions: in vivo.
The nature of series [8]: Tmax in human at 10 g, po administered as single dose. Format: ADME, organism-based. Conditions: in vivo.
Series [9] can be described thus: Half life in human at 10 g, po administered as single dose. The series is classed as ADME, organism-based. Conditions: in vivo.
The test system of series [10] is Homo sapiens. As to the kind of experiment: Drug metabolism in human assessed as ratio of glucuronide to sulfate at 10 and 12 g, po administered as single dose. Conditions: in vivo. The series is classed as ADME, organism-based.
A short description of series [11]: Plasma concentration in human at 3.6 g/day, po measured after 0.5 and 1 hr. Format: ADME, organism-based.
Series [12] can be described thus: Drug excretion in human urine at 3.6 g/day, po. Format: ADME, tissue-based.
Series [13] is described as follows: Drug uptake in human normal colorectal tissue at 3.6 g/day, po. The series is classed as ADME.
A short description of series [14]: Drug uptake in human malignant colorectal tissue at 3.6 g/day, po. Format: ADME.
The nature of series [15]: Tmax in human at 12 g, po administered as single dose. The series is classed as ADME, organism-based. Conditions: in vivo.
Series [16] can be described thus: Half life in human at 12 g, po administered as single dose. Format: ADME, organism-based. Conditions: in vivo.
Series [17] deals with Plasma. As to the kind of experiment: Drug metabolism in human plasma assessed as compound glucuronide conjugate at 3.6 g/day, po measured after 0.5 and 1 hr. Format: ADME, organism-based.
The test system of series [18] is Plasma. As to the kind of experiment: Drug metabolism in human plasma assessed as compound sulfate conjugate at 3.6 g/day, po measured after 0.5 and 1 hr. The series is classed as ADME, organism-based.
Series [19] in a line: Drug metabolism in human urine assessed as compound glucuronide conjugate at 3.6 g/day, po measured after 0.5 and 1 hr. The series is classed as ADME, organism-based. Conditions: in vivo.
The nature of series [20]: Drug metabolism in human urine assessed as compound sulfate conjugate at 3.6 g/day, po measured after 0.5 and 1 hr. Format: ADME, organism-based. Conditions: in vivo.

The inhibition is the share of the control response that was lost under treatment. A word on the Cmax: it is the peak of the concentration-time curve. What is called Tmax is the time at which the peak concentration occurs. By half-life is commonly meant the time needed for the level to fall by half in the phase considered. A high value points to slow loss. Regarding `COc1cc(/C=C/C(=O)CC(=O)/C=C/c2ccc(O)c(OC)c2)ccc1O` [CURCUMIN], the inhibition in series [1] is 80%. In series [2], this molecule gave a Cp of 10 ng/mL. Further, the concentration at 3 months in series [3] is 510 nM; in [4] it was 630 nM; in series [5], 1770 nM. The peak concentration (Cmax) in [6] was found to be 2300 ng/mL; in [7], 1730 ng/mL. Moreover, the time of peak concentration (Tmax) in [8] and in [15] was 3.29 h throughout. Further, the half-life in series [9] and in [16] was 406 min each time. Also, the Ratio in [10] amounted to 1.92. Also, in series [11], the concentration at 1 h stood at 11.1 nM. This molecule also had a Drug excretion in series [12] of 0.1 µmol/L. The Drug uptake was 12.7 nmol/g in series [13] and 7.7 nmol/g in [14]. The Drug metabolism in [17] was found to be 15.8 nmol/L; in series [18], 8.9 nmol/L; in [19], 210 nmol/L; in [20], 19 nmol/L.

The values are drawn from ChEMBL document CHEMBL3763013, “Prospective of curcumin, a pleiotropic signalling molecule from Curcuma longa in the treatment of Glioblastoma” (Eur J Med Chem, 2016).
